Test results reported in ChEMBL document CHEMBL6153169, “Menominin A and B: Cytotoxic Cyclodepsipeptides from the Freshwater Sponge-Associated Cyanobacterium Nostoc sp. UIC 10607” (J Nat Prod, 2025).

Key:
OVCAR-3 = assay: Cytotoxicity against human OVCAR-3 cells assessed as inhibition of cell growth incubated for 72 hrs by CellTiter 96 Aqueous One Solution based assay; format: functional; conditions: OVCAR-3, 72 h
MDA-MB-435 = assay: Cytotoxicity against human MDA-MB-435 cells assessed as inhibition of cell growth incubated for 72 hrs by CellTiter 96 Aqueous One Solution based assay; format: functional; conditions: MDA-MB-435, 72 h

CCCCCC[C@@H]1CCCC[C@@H](O)[C@H](C)C(=O)O[C@@H](C(C)C)C(=O)N[C@@H](Cc2ccccc2)C(=O)O1
IC50 (OVCAR-3): 2400 nM
IC50 (MDA-MB-435): 2900 nM

CC(=O)O[C@H]1C(=O)[C@@]2(C)[C@H]([C@H](OC(=O)c3ccccc3)[C@]3(O)C[C@H](OC(=O)[C@H](O)[C@@H](NC(=O)c4ccccc4)c4ccccc4)C(C)=C1C3(C)C)[C@]1(OC(C)=O)CO[C@@H]1C[C@@H]2O [PACLITAXEL]
IC50 (OVCAR-3): 2.2 nM
IC50 (MDA-MB-435): 0.52 nM

CCCCCC[C@@H]1CCCC[C@@H](O)[C@H](C)C(=O)O[C@@H]([C@H](C)CC)C(=O)N[C@@H](Cc2ccccc2)C(=O)O1
IC50 (OVCAR-3): 3100 nM
IC50 (MDA-MB-435): 5200 nM
